In ChEMBL document CHEMBL1909046, “DrugMatrix in vitro pharmacology data”:

Columns and labels:
[1] = molecular target: Receptor tyrosine-protein kinase erbB-2 (Homo sapiens, UniProt P04626); experiment: biochemical; format: cell-based, Insect cells; details: insect cells;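 further: inhibition of HER2 kinase enzyme activity, measured with Poly(Glu:Tyr) as the phosphorylation substrate; in other assays of this panel Not Active means under 50% inhibition at 10 µM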
[2] = DRUGMATRIX: Nicotinic Acetylcholine radioligand binding (ligand: [125I] Epibatidine); format: cell membranes, Membrane; details: imr-32; Not Active = under 50% inhibition at 10 µM
[3] = molecular target: T1, Amine oxidase [flavin-containing] A (Homo sapiens, UniProt P21397); experiment: DRUGMATRIX: Monoamine Oxidase MAO-A enzyme inhibition (substrate: Kynuramine); design: species or system BTI-TN-5B1-4; details: bti-tn-5b1-4; Not Active = under 50% inhibition at 10 µM
T1 sequence (P21397 whole entry): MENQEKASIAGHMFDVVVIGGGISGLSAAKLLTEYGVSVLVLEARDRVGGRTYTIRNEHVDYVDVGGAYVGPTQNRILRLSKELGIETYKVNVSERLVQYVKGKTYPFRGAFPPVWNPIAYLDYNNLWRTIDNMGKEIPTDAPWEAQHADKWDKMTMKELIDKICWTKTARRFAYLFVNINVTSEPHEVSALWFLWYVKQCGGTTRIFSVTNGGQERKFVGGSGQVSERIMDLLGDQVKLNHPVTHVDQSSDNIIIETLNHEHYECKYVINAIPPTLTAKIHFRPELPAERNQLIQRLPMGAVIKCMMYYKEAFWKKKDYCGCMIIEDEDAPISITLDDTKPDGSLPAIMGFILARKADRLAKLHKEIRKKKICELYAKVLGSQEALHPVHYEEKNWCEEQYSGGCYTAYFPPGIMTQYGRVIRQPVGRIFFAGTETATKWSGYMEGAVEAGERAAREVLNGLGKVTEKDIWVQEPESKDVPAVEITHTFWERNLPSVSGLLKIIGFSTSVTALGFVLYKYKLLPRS

[4] = molecular target: T2, Receptor-type tyrosine-protein phosphatase C (Homo sapiens, UniProt P08575); design: species or system Escherichia coli;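 further: inhibition of CD45 enzyme activity measured using DiFMUP as substrate; in other assays of this panel Not Active means under 50% inhibition at 10 µM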
T2 sequence (P08575 whole entry): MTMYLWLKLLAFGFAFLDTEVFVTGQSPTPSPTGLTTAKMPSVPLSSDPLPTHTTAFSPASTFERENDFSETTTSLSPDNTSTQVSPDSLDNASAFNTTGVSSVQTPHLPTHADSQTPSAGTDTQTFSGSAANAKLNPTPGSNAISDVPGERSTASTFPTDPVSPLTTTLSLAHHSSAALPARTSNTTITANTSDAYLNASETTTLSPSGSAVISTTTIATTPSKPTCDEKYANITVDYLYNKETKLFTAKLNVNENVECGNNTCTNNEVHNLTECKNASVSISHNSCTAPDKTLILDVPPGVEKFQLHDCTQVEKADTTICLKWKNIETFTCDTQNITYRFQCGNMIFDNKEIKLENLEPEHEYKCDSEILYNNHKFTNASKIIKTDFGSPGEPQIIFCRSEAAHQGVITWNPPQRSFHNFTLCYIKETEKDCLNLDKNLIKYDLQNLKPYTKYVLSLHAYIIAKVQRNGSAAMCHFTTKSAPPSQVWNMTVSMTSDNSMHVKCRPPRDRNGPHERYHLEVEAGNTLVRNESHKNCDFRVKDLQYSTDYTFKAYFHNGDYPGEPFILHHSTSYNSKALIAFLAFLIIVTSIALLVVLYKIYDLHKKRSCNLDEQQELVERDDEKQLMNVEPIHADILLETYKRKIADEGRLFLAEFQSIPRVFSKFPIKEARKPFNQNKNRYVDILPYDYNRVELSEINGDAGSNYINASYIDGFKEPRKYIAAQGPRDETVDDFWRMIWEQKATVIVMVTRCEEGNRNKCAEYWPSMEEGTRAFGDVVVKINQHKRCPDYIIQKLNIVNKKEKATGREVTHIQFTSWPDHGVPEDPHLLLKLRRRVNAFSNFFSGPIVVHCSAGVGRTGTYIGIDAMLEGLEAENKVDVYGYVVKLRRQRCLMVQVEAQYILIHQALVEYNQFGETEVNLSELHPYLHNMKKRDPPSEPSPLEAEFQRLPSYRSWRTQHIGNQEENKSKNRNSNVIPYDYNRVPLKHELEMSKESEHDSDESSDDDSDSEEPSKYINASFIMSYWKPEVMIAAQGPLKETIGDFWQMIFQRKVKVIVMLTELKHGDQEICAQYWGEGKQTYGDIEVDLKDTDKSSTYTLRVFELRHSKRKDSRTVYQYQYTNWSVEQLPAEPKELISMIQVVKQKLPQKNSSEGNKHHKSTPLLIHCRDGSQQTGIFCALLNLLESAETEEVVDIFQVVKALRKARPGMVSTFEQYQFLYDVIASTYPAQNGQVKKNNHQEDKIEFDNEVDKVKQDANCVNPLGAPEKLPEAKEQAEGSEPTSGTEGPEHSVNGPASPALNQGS

[5] = molecular target: T3, Alpha-2A adrenergic receptor (Homo sapiens, UniProt P08913); format: cell membranes, Sf9, Membrane; further: in other assays of this panel Not Active means under 50% inhibition at 10 µM
T3 sequence (P08913 whole entry): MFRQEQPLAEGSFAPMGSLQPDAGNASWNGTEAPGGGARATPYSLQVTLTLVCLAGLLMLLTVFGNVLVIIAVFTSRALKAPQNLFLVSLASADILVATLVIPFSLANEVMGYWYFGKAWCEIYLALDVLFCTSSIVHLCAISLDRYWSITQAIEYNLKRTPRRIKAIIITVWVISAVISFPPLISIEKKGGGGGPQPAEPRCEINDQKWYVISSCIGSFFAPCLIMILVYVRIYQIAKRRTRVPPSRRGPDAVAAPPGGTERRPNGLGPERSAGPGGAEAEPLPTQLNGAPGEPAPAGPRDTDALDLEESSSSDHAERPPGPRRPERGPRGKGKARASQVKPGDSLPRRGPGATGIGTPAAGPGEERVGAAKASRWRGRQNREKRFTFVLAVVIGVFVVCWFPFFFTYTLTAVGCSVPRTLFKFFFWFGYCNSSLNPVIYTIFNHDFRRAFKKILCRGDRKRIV

Receptor tyrosine-protein kinase erbB-2, sequence (P04626 whole entry): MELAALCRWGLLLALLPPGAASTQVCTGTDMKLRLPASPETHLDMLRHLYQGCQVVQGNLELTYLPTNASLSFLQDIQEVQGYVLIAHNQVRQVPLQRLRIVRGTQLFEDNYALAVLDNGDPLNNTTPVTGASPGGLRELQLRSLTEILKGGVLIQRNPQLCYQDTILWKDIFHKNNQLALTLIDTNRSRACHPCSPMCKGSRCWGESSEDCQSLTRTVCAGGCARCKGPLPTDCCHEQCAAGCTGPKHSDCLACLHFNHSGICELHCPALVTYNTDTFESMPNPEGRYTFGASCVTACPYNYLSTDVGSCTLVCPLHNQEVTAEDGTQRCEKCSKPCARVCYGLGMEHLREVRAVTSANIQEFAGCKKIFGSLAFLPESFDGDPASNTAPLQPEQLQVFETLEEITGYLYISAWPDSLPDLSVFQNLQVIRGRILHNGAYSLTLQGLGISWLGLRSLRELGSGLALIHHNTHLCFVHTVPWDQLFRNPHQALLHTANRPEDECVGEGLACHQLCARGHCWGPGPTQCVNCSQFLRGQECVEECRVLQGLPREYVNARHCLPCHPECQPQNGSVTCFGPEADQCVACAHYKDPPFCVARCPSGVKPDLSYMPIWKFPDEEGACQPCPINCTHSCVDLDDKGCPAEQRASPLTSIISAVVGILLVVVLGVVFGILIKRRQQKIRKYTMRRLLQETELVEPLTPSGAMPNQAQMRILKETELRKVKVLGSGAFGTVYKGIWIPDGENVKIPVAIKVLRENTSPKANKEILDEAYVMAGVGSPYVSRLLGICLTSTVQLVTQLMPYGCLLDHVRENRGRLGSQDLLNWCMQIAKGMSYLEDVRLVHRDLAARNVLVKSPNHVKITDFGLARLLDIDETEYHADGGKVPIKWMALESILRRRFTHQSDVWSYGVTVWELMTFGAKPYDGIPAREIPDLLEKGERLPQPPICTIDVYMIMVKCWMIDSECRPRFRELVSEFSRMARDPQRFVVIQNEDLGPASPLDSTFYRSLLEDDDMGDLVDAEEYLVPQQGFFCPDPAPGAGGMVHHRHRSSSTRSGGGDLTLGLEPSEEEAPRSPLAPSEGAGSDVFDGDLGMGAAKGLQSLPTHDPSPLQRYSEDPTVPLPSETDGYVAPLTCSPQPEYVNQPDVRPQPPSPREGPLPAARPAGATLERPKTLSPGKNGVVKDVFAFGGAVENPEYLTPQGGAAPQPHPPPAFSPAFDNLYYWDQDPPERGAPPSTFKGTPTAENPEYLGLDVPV

CC(=O)S[C@@H]1CC2=CC(=O)CC[C@]2(C)[C@H]2CC[C@@]3(C)[C@@H](CC[C@@]34CCC(=O)O4)[C@H]12 [SPIRONOLACTONE]
IC50 [1]: Not Active | IC50 [2]: Not Active | Ki [2]: Not Active | IC50 [3]: Not Active | IC50 [4]: Not Active | IC50 ([5]; sf9): Not Active

CC(C)(C)NCC(O)c1ccc(O)c(CO)c1 (configuration not stated) [ALBUTEROL]
IC50 [1]: Not Active | IC50 [2]: Not Active | Ki [2]: Not Active | IC50 [3]: Not Active | IC50 [4]: Not Active | IC50 ([5]; sf9): Not Active

CO[C@@H]1[C@@H](O[C@@H]2O[C@H](C)[C@@H](O[C@H]3C[C@@](C)(O)[C@@H](OC(=O)CC(C)C)[C@H](C)O3)[C@H](N(C)C)[C@H]2O)[C@@H](CC=O)C[C@@H](C)[C@@H](O)/C=C/C=C/C[C@@H](C)OC(=O)C[C@H]1O [KITASAMYCIN]
IC50 [1]: Not Active | IC50 [2]: Not Active | Ki [2]: Not Active | IC50 [3]: Not Active | IC50 [4]: Not Active | IC50 ([5]; sf9): Not Active

Clc1ccc(C(c2ccccc2Cl)C(Cl)Cl)cc1 (configuration not stated) [MITOTANE]
IC50 [1]: Not Active | IC50 [2]: Not Active | Ki [2]: Not Active | IC50 [3]: Not Active | IC50 [4]: Not Active | IC50 ([5]; read-out: IC50): 7.35 µM | Ki ([5]; read-out: Ki): 2.75 µM

C=CC[C@@H]1/C=C(\C)C[C@H](C)C[C@H](OC)[C@H]2O[C@@](O)(C(=O)C(=O)N3CCCC[C@H]3C(=O)O[C@H](/C(C)=C/[C@@H]3CC[C@@H](O)[C@H](OC)C3)[C@H](C)[C@@H](O)CC1=O)[C@H](C)C[C@@H]2OC [TACROLIMUS ANHYDROUS]
IC50 [1]: Not Active | IC50 [2]: Not Active | Ki [2]: Not Active | IC50 [3]: Not Active | IC50 [4]: Not Active | IC50 ([5]; sf9): Not Active

COc1ccc(C(CN(C)C)C2(O)CCCCC2)cc1 (configuration not stated) [VENLAFAXINE]
IC50 [1]: Not Active | IC50 [2]: Not Active | Ki [2]: Not Active | IC50 [3]: Not Active | IC50 [4]: Not Active | IC50 ([5]; sf9): Not Active

CC(C)(C)NCC(O)c1cc(O)cc(O)c1 (configuration not stated) [TERBUTALINE]
IC50 [1]: Not Active | IC50 [2]: Not Active | Ki [2]: Not Active | IC50 [3]: Not Active | IC50 [4]: Not Active | IC50 ([5]; sf9): Not Active

Cc1cc(NS(=O)(=O)c2ccc(N)cc2)no1 [SULFAMETHOXAZOLE]
IC50 [1]: Not Active | IC50 [2]: Not Active | Ki [2]: Not Active | IC50 [3]: Not Active | IC50 [4]: Not Active | IC50 ([5]; sf9): Not Active

COC(=O)c1ccc(O)cc1 [METHYLPARABEN]
IC50 [1]: Not Active | IC50 [2]: Not Active | Ki [2]: Not Active | IC50 [3]: Not Active | IC50 [4]: Not Active | IC50 ([5]; sf9): Not Active

Cc1ncc([N+](=O)[O-])n1CC(C)O (configuration not stated) [SECNIDAZOLE]
IC50 [1]: Not Active | IC50 [2]: Not Active | Ki [2]: Not Active | IC50 [3]: Not Active | IC50 [4]: Not Active | IC50 ([5]; sf9): Not Active

CCC[C@@H]1C[C@@H](C(=O)N[C@@H]([C@H]2O[C@H](SC)[C@H](O)[C@@H](O)[C@H]2O)[C@@H](C)O)N(C)C1 [LINCOMYCIN]
IC50 [1]: Not Active | IC50 [2]: Not Active | Ki [2]: Not Active | IC50 [3]: Not Active | IC50 [4]: Not Active | IC50 ([5]; sf9): Not Active
